Results taken from ChEMBL document CHEMBL3804831, “N-Acyl Dehydrotyrosines, Tyrosinase Inhibitors from the Marine Bacterium Thalassotalea sp. PP2-459” (J Nat Prod, 2016).
pIC50: −log10 of the molar value. Activity calls are given as the source filed them. No cut-off for these calls is given here.

Key:
Tyrosinase = molecular target: T1, Tyrosinase (Agaricus bisporus, UniProt O42713)
T1 sequence (O42713 whole entry): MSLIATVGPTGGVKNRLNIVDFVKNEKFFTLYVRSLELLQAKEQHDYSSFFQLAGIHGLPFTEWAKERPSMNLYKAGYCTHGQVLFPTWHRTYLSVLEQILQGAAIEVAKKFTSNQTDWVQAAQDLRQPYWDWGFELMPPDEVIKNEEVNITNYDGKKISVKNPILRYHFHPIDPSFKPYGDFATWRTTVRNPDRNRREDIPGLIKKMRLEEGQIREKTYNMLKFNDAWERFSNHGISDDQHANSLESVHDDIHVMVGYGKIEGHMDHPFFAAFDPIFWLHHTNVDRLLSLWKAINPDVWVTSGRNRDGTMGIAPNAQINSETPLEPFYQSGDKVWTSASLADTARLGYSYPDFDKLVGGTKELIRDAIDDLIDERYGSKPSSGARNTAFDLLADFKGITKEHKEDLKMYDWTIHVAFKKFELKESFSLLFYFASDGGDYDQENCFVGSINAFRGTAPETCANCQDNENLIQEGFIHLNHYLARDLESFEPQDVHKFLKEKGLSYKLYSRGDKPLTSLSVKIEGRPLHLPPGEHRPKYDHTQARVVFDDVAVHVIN
Description: Inhibition of mushroom tyrosinase using L-tyrosine as a substrate after 30 mins by spectrophotometric method

[1] = molecular target: T2, Tyrosinase (Agaricus bisporus) (UniProt O42713); assay: Inhibition of mushroom tyrosinase at 1 mM using L-tyrosine as a substrate after 30 mins by spectrophotometric method
T2 sequence (whole entry): T1 sequence (O42713 whole entry)

SMILES | pIC50 (Tyrosinase) | inhibition [1]
CCCCCCCCCC(=O)N/C(=C\c1ccc(O)cc1)C(N)=O |  | inactive
CC(C)CCCCCCC(=O)N/C(=C\c1ccc(O)cc1)C(N)=O |  | inactive
CCCCCCCCC(=O)N/C(=C\c1ccc(O)cc1)C(=O)O | 3.55 | 

Continued, values first:

pIC50 (Tyrosinase) | inhibition [1] | SMILES
3.89 |  | CCCCCCCCCC(=O)N/C(=C\c1ccc(O)cc1)C(=O)O
3.33 |  | CC(C)CCCCCCC(=O)N/C(=C\c1ccc(O)cc1)C(=O)O
